According to patent publication US9974305B2, “Fungicidal or bactericidal composition, and method for controlling diseases” (NISSAN CHEMICAL INDUSTRIES, LTD., priority 2014, dated 2018):
Where two headings read alike, the source gives them in different places.

Columns and labels:
[1] = test system: cucumber gray mold fungus (Botrytis cinerea); assay: Preventive test against gray mold on cucumber cotyledon leaves, spray treatment, preventive value and Colby expected value (Test Examples 1-4); format: in vivo; conditions: single compound; for pest or weed control at 100 ppm / pest or weed control at 3 ppm / pest or weed control at 10 ppm / pest or weed control at 50 ppm / pest or weed control at 5 ppm / pest or weed control at 35 ppm / pest or weed control at 8 ppm / pest or weed control at 25 ppm: Botrytis cinerea, 72 h; for pest or weed control at 3 ppm: 3 ppm spray; for pest or weed control at 35 ppm: 35 ppm spray; for pest or weed control at 8 ppm: 8 ppm spray; for pest or weed control at 25 ppm: 25 ppm spray
Method: Using the following compound listed in Table 2 (the active ingredient A) and the compound listed in Table 5 through Table 15 (active ingredient B), an agent was prepared in accordance with the above Formulation Example. This agent was diluted with water to a predetermined concentration to obtain a test solution. Then, cucumber (variety: Sagami-hanjiro) was planted in a plastic pot of 90 cm^3, and in the cotyledon stage, 5 ml of the obtained test solution, was sprayed by a spray gun and air-dried. Thereafter, the treated leaf was cut off and placed in a plastic container which filled approximately 0.5 cm in depth water. A suspension of conidia of cucumber gray mold fungus (Botrytis cinerea) and a dissolved PDA culture medium were mixed at a ratio of 1:1 (mass ratio), and the mixture was dropped to inoculate the treated leaf with 30 μl. After the inoculation, the plastic container was sealed and left at 20° C. for 3 days, the ratio of the formed lesion occupying the inoculated leaf was measured, and the preventive value was calculated in accordance with the following calculation formula. Preventive value=[1−(treated plot lesion area ratio/untreated plot lesion area ratio)]×100
Further, from the preventive value at each agent concentration, synergy was calculated by using the Colby method (Colby S. R. 1976, Weeds 15, 20-22). The calculation method is as follows. E=X+Y−XY/100
X: preventive value of A agent at x concentration
Y: preventive value of B agent at y concentration
E: theoretical value expected by treatment of the mixture of A agent and B agent.
The obtained result is analyzed to be synergy if the observed value is larger than the expected value, to be antagonism if the expected value is larger than the observed value, and to be an additive effect if the observed value and the expected value are the same.
Using the following compound listed in Table 2 (active ingredient A) and the following compound listed in Table 5 through Table 15 (active ingredient B) as active ingredients, a preventive test against gray mold was conducted in accordance with the method described in Test Example 1.
Using the following compound listed in Table 2 (active ingredient A) and the following compound listed in Table 5 or Table 6 (active ingredient B) as active ingredients, a preventive test against gray mold was conducted in accordance with the method described in Test Example 1.
Using the following compound listed in Table 2 (active ingredient A) and the following compound listed in Table 6 through Table 16 (active ingredient B) as active ingredients, a preventive test against gray mold was conducted in accordance with the method described in Test Example 1.

[2] = test system: wheat glume blotch (Leptosphaeria nodorum); assay: Efficacy test on wheat glume blotch, spray treatment and prevention test (Test Example 8); format: in vivo; conditions: spray, lesion area ratio
Method: An agent comprising the following compound listed in Table 2 (active ingredient A) and the following compound listed in Table 6, Table 11 or Table 15 (active ingredient B) as active ingredients, was prepared in accordance with the above Formulation Example. This agent was diluted with water to a predetermined concentration to obtain a test solution. Then, to seedlings of wheat (variety: Haruyutaka) at the 1-leaf stage, seeded in a pot with a diameter of 7 cm, with 5 seeds per pot, and grown for 7 days, the test solution was applied by a spray gun in an amount of 5 ml per pot, for treatment. One day after the treatment, a spore suspension (1×100,000 cfu/ml) of wheat glume blotch (Leptosphaeria nodorum) was spray-inoculated, and the pot was placed in a moist chamber set in temperature of 20° C. and humidity more than 95% RH for 48 hours. After placing the pot in a glass greenhouse for 7 days, the ratio of the formed lesion area occupying the inoculated leaves was measured, and the preventive value was calculated in accordance with the following formula. Preventive value=[1−(treated plot lesion area ratio/untreated plot lesion area ratio)]×100
Further, from the preventive value for each agent concentration, synergy was calculated by using the Colby method (Colby S. R. 1976, Weeds 15, 20-22).

[3] = Test Example 4, 100 ppm spray, read-out: Preventive value
[4] = Test Example 1, read-out: Preventive value
[5] = Test Example 2, read-out: Preventive value
[6] = Test Example 4, 10 ppm spray, read-out: Preventive value
[7] = Test Example 4, 50 ppm spray, read-out: Preventive value

Compound: Cn1cc(C(=O)Nc2cccc3c2[C@@H]2CC[C@H]3C2=C(Cl)Cl)c(C(F)F)n1 (racemic) [C01, benzovindiflupyr]
- Preventive value ([1]; Test Example 3, 5 ppm spray): 60

Compound: C[C@@]1(c2ccc(Oc3ccccc3)cc2)OC(=O)N(Nc2ccccc2)C1=O (racemic) [C23, famoxadone]
- pest or weed control at 100 ppm [1, 3]: 35%

Compound: Fc1ccc([C@]2(Cn3cncn3)O[C@H]2c2ccccc2Cl)cc1 (racemic) [Compound No. H10, epoxiconazole]
- Preventive value ([2]; single compound 1 ppm): 50
- Preventive value ([1]; Test Example 1, 10 ppm spray): 60
- Preventive value ([1]; Test Example 2, 10 ppm spray): 50

Compound: CCCCNC(=O)n1c(NC(=O)OC)nc2ccccc21 [B01, benomyl]
- pest or weed control at 3 ppm [1, 4]: 50%
- pest or weed control at 3 ppm [1, 5]: 45%

Compound: COC(=O)NC(=S)Nc1ccccc1NC(=S)NC(=O)OC [B05, thiophanate-methyl]
- pest or weed control at 10 ppm ([1]; Test Example 3, 10 ppm spray, read-out: Preventive value): 60%

Compound: CCOc1ccc(NC(=O)OC(C)C)cc1OCC [B06, diethofencarb]
- pest or weed control at 50 ppm ([1]; read-out: Preventive value, Test Example 3, 50 ppm spray): 45%

Compound: Cn1cc(C(=O)Nc2ccc(F)cc2-c2ccc(Cl)c(Cl)c2)c(C(F)F)n1 [C02, bixafen]
- Preventive value ([1]; Test Example 3, 50 ppm spray): 70

Compound: O=C(Nc1ccccc1-c1ccc(Cl)cc1)c1cccnc1Cl [C03, boscalid]
- pest or weed control at 3 ppm [1, 4]: 60%
- pest or weed control at 3 ppm [1, 5]: 58%

Compound: O=C(NCCc1ncc(C(F)(F)F)cc1Cl)c1ccccc1C(F)(F)F [C06, fluopyram]
- pest or weed control at 5 ppm ([1]; Test Example 3, 5 ppm spray): 63%

Compound: CC(C)Oc1cccc(NC(=O)c2ccccc2C(F)(F)F)c1 [C07, flutolanil]
- pest or weed control at 100 ppm ([1]; Test Example 3, 100 ppm spray, read-out: Preventive value): 50%

Compound: Cn1cc(C(=O)Nc2ccccc2-c2cc(F)c(F)c(F)c2)c(C(F)F)n1 [C08, fluxapyroxad]
- Preventive value ([1]; Test Example 3, 1 ppm spray): 65

Compound: Cc1nn(C)c(Cl)c1C(=O)Nc1cccc2c1C(C)OC2(C)C (stereo not drawn) [C09, furametpyr]
- Preventive value ([1]; Test Example 3, 100 ppm spray): 55

Compound: Cc1cc(OC(C)C)ccc1C(=O)C(C)(C)NC(=O)c1sccc1C [C10, isofetamid]
- Preventive value ([1]; Test Example 3, 5 ppm spray): 45

Compound: Cc1ccccc1C(=O)Nc1cccc(OC(C)C)c1 [C12, mepronil]
- pest or weed control at 10 ppm ([1]; read-out: Preventive value, Test Example 3, 10 ppm spray): 60%

Compound: Cc1nn(C)c(F)c1C(=O)Nc1ccccc1C(C)CC(C)C (stereo not drawn) [C14, penflufen]
- Preventive value ([1]; Test Example 3, 100 ppm spray): 65

Compound: CC(C)CC(C)c1sccc1NC(=O)c1cn(C)nc1C(F)(F)F (stereo not drawn) [C15, penthiopyrad]
- pest or weed control at 5 ppm ([1]; Test Example 3, 5 ppm spray): 60%

Compound: Cn1cc(C(=O)Nc2ccccc2C2CC2C2CC2)c(C(F)F)n1 (stereo not drawn) [C16, sedaxane]
- Preventive value ([1]; Test Example 3, 10 ppm spray): 50

Compound: CO/N=C(/C(=O)OC)c1ccccc1COc1ccccc1C [C28, kresoxim-methyl]
- pest or weed control at 5 ppm ([2]; Parastagonospora nodorum, single compound 5 ppm, read-out: Preventive value): 45%
- pest or weed control at 10 ppm ([1]; Test Example 1, 10 ppm spray, read-out: Preventive value): 45%
- pest or weed control at 10 ppm ([1]; Test Example 2, 10 ppm spray, read-out: Preventive value): 56%

Compound: CNC(=O)C(OC)c1ccccc1COc1cc(C)ccc1C (stereo not drawn) [C29, mandestrobin, reference compound]
- Preventive value ([2]; single compound 10 ppm): 50
- Preventive value ([1]; Test Example 4, 10 ppm spray): 45

Compound: CNC(=O)/C(=N/OC)c1ccccc1CO/N=C(C)/C(=N/OC)C(/C)=N/OC [C31, orysastrobin]
- Preventive value ([1]; Test Example 4, 50 ppm spray): 40

Compound: CO/C=C(/C(=O)OC)c1ccccc1COc1cccc(C(F)(F)F)n1 [C32, picoxystrobin, reference compound]
- Preventive value ([2]; single compound 1 ppm): 50
- Preventive value ([1]; Test Example 4, 10 ppm spray): 30

Compound: COC(=O)N(OC)c1ccccc1COc1ccn(-c2ccc(Cl)cc2)n1 [C33, pyraclostrobin, reference compound]
- pest or weed control at 1 ppm ([2]; Parastagonospora nodorum, single compound 1 ppm, read-out: Preventive value): 65%
- pest or weed control at 10 ppm [1, 6]: 50%

Compound: COC(=O)NCc1cc(/C(C)=N/OCc2cccc(C)n2)ccc1Cl [C36, pyribencarb-methyl, reference compound]
- Preventive value ([2]; single compound 25 ppm): 45
- Preventive value ([1]; Test Example 4, 10 ppm spray): 60

Compound: O=[N+]([O-])c1cc(C(F)(F)F)c(Cl)c([N+](=O)[O-])c1Nc1ncc(C(F)(F)F)cc1Cl [C43, fluazinam]
- pest or weed control at 50 ppm [1, 7]: 45%

Compound: N#Cc1c[nH]cc1-c1cccc2c1OC(F)(F)O2 [Compound No. E04, fludioxonil]
- pest or weed control at 3 ppm ([1]; read-out: Preventive value, Test Example 1): 60%
- pest or weed control at 3 ppm ([1]; read-out: Preventive value, Test Example 2): 58%

Compound: CC(C)NC(=O)N1CC(=O)N(c2cc(Cl)cc(Cl)c2)C1=O [Compound No. F01, iprodione]
- pest or weed control at 35 ppm ([1]; Test Example 1): 50%
- pest or weed control at 35 ppm ([1]; Test Example 2): 48%

Compound: Cc1cc(C2CC2)nc(Nc2ccccc2)n1 [D1, cyprodinil]
- pest or weed control at 50 ppm [1, 7]: 50%

Compound: CC#Cc1cc(C)nc(Nc2ccccc2)n1 [D2, mepanipyrim]
- pest or weed control at 8 ppm ([1]; Test Example 1): 55%
- pest or weed control at 8 ppm ([1]; Test Example 2): 56%

Compound: Fc1ccc(Oc2ccnc3cc(Cl)cc(Cl)c23)cc1 [E02, quinoxyfen]
- pest or weed control at 100 ppm [1, 3]: 5%

Compound: CC12CC1(C)C(=O)N(c1cc(Cl)cc(Cl)c1)C2=O (stereo not drawn) [F02, procymidone]
- pest or weed control at 10 ppm [1, 6]: 55%

Compound: COc1cc(Cl)c(OC)cc1Cl [G06, chloroneb]
- pest or weed control at 100 ppm ([1]; read-out: Preventive value, Test Example 4, 100 ppm spray): 35%

Compound: CC(C1CC1)C(O)(Cn1cncn1)c1ccc(Cl)cc1 (stereo not drawn) [H05, cyproconazole]
- pest or weed control at 10 ppm [1, 6]: 45%

Compound: CC1COC(Cn2cncn2)(c2ccc(Oc3ccc(Cl)cc3)cc2Cl)O1 (stereo not drawn) [H07, difenoconazole]
- pest or weed control at 10 ppm [1, 6]: 50%

Compound: OC(c1ccc(Cl)cc1)(c1cncnc1)c1ccccc1Cl (stereo not drawn) [H12, fenarimol]
- pest or weed control at 10 ppm [1, 6]: 55%

Compound: O=c1c2cc(F)ccc2nc(-n2cncn2)n1-c1ccc(Cl)cc1Cl [H15, fluquinconazole]
- pest or weed control at 10 ppm [1, 6]: 55%

Compound: C[Si](Cn1cncn1)(c1ccc(F)cc1)c1ccc(F)cc1 [H16, flusilazole]
- pest or weed control at 10 ppm [1, 6]: 50%

Compound: OC(Cn1cncn1)(c1ccc(F)cc1)c1ccccc1F (stereo not drawn) [H17, flutriafol]
- pest or weed control at 10 ppm [1, 6]: 45%

Compound: CCCC(Cn1cncn1)c1ccc(Cl)cc1Cl (stereo not drawn) [H28, penconazole]
- pest or weed control at 10 ppm [1, 6]: 45%

Compound: FC(F)C(F)(F)OCC(Cn1cncn1)c1ccc(Cl)cc1Cl (stereo not drawn) [H36, tetraconazole]
- pest or weed control at 10 ppm [1, 6]: 55%

Compound: CC(Cc1ccc(C(C)(C)C)cc1)CN1CCCCC1 (stereo not drawn) [H44, fenpropidin]
- pest or weed control at 100 ppm [1, 3]: 35%

Compound: CC(Cc1ccc(C(C)(C)C)cc1)CN1C[C@@H](C)O[C@@H](C)C1 (stereo partly drawn) [H45, fenpropimorph]
- pest or weed control at 100 ppm [1, 3]: 10%

Compound: CC1(C(=O)Nc2ccc(O)c(Cl)c2Cl)CCCCC1 [H49, fenhexamid]
- pest or weed control at 25 ppm ([1]; Test Example 1): 30%
- pest or weed control at 25 ppm ([1]; Test Example 2): 25%

Compound: O=C1c2ccccc2C(=O)N1SC(Cl)(Cl)Cl [L24, folpet]
- pest or weed control at 100 ppm [1, 3]: 45%

Compound: O=C(Cc1ccccc1)N/C(=N\OCC1CC1)c1c(C(F)(F)F)ccc(F)c1F [M01, cyflufenamid]
- pest or weed control at 100 ppm [1, 3]: 15%

Compound: COc1cc(C)c(C(=O)c2c(OC)ccc(Br)c2C)c(OC)c1OC [M09, metrafenone]
- pest or weed control at 100 ppm [1, 3]: 5%

Compound: mancozeb [L16]
- Preventive value ([1]; Test Example 4, 100 ppm spray): 45
